These results are taken from PMC9369162, “Substrates of the Human Brain Proton-Organic Cation Antiporter and Comparison with Organic Cation Transporter 1 Activities” (International Journal of Molecular Sciences, 2022).

Structures are written as SMILES.

One data set has as its target T1, OCT1 (Homo sapiens, UniProt O15245).
T1 construct: expressed in transfected cells; host or cells: HEK293
T1 sequence (O15245 1-554): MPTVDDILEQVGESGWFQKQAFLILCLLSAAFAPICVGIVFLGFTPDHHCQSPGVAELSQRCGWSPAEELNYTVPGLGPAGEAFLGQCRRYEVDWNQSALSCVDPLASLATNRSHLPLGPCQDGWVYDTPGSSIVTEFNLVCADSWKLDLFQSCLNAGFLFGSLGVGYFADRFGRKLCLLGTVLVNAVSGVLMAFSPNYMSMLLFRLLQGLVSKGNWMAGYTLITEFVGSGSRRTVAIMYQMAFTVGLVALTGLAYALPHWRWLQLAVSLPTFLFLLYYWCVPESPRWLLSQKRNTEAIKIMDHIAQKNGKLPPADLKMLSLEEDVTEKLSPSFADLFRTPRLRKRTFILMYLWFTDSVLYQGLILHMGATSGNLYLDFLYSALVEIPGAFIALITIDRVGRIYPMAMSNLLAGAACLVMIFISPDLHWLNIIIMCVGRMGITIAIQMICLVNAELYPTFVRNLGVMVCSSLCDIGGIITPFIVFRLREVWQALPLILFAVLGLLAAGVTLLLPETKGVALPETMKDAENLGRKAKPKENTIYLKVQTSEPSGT
Experiment: not given
More on the design: method as in PMID 34093211. The note with it: cited from earlier work.
Regarding `CN(C)CCC=C1c2ccccc2CCc2ccccc21` [Amitriptyline], the OCT1 substrate status result was “not OCT1 substrates”.

In another data set the target is T1, OCT1. The data set is described as follows: Cell uptake in OCT1 overexpressing HEK293 cells over empty-vector transfected cells. The class given is cell-based.
Settings: not given
In the case of `N[C@@H]1C[C@H]1c1ccccc1` (racemic) [Tranylcypromine], the “OCT1 Ratio” value came out at 1.60.
Consider `Nc1nc2c(ncn2COCCO)c(=O)[nH]1` [Acyclovir], for which the “OCT1 Ratio” value was 2.00.
As for `CC(C)(C)NCC(O)c1cc(Cl)c(N)c(Cl)c1` (centres unmarked) [Clenbuterol], the “OCT1 Ratio” value is recorded as 1.10.
Same read-out and setting: the result for `COc1cccc2c1C(=O)c1c(O)c3c(c(O)c1C2=O)C[C@@](O)(C(C)=O)C[C@@H]3O[C@H]1C[C@H](N)[C@H](O)[C@H](C)O1` [Daunorubicin] reads 1.10.
The same measure, in the same setting: the result for `CN(C)CC(c1ccc(O)cc1)C1(O)CCCCC1` (centres unmarked) [Desmethylvenlafaxine] reads 3.30.
On to `COc1ccc2c3c1O[C@H]1[C@@H](O)CC[C@H]4[C@@H](C2)N(C)CC[C@@]341` [Dihydrocodeine], for which the “OCT1 Ratio” value was determined as 0.80.
With `CNCC[C@H](Oc1cccc2ccccc12)c1cccs1` [Duloxetine], the “OCT1 Ratio” value amounted to 1.20.
With `CN[C@@H](C)[C@H](O)c1ccccc1` [Ephedrine], the “OCT1 Ratio” value is recorded as 1.50.
With `CCOC(=O)c1cncn1[C@H](C)c1ccccc1` [Etomidate], the “OCT1 Ratio” value came out at 0.94.
Take `COc1ccc2c3c1O[C@H]1C(=O)CC[C@H]4[C@@H](C2)N(C)CC[C@]314` [Hydrocodone]: the “OCT1 Ratio” value was found to be 1.20.
As to `CNC1(c2ccccc2Cl)CCCCC1=O` (centres unmarked) [Ketamine], the “OCT1 Ratio” value was found to be 1.10.
`CCC1(c2cccc(O)c2)CCCCN(C)C1` (centres unmarked) [Meptazinol]: the “OCT1 Ratio” value came to 3.20.
Regarding `COC(=O)C(c1ccccc1)C1CCCCN1` (centres unmarked) [Methylphenidate], the “OCT1 Ratio” value was 1.90.
For the molecule `CCN(CC)CCNC(=O)c1cc(Cl)c(N)cc1OC` [Metoclopramide], the “OCT1 Ratio” value stood at 1.80.
As for `CNCC1CCCCC1(O)c1cccc(OC)c1` (centres unmarked) [N-Desmethyltramadol], the “OCT1 Ratio” value is on record as 2.40.
As to `CCOC(=O)[C@]1(c2ccccc2)CCC=C[C@H]1NC` [Nortilidine], the “OCT1 Ratio” value came to 1.62.
On to `COc1ccc2c3c1O[C@H]1C(=O)CC[C@@]4(O)[C@@H](C2)N(C)CC[C@]314` [Oxycodone], for which the “OCT1 Ratio” value was 0.90.
Consider `Fc1ccc([C@@H]2CCNC[C@H]2COc2ccc3c(c2)OCO3)cc1` [Paroxetin], for which the “OCT1 Ratio” value was determined as 1.17.
Still for that read-out and setting: the result for `CC(C)(C)NCC(O)c1ccc(O)c(CO)n1` (centres unmarked) [Pirbuterol] reads 80.90.
As for `N#CC(CCN1CCC(C(N)=O)(N2CCCCC2)CC1)(c1ccccc1)c1ccccc1` [Piritramide], the “OCT1 Ratio” value was 1.18.
Regarding `CNC(=C[N+](=O)[O-])NCCSCc1ccc(CN(C)C)o1` [Ranitidin], the “OCT1 Ratio” value amounted to 18.10.
As for `CN1[C@@H]2C[C@@H](OC(=O)[C@H](CO)c3ccccc3)C[C@H]1[C@@H]1O[C@@H]12` [Scopolamin], the “OCT1 Ratio” value is recorded as 1.10.
On the same count and under the same terms, the result for `Cn1c(=O)c2[nH]cnc2n(C)c1=O` [Theophyllin] reads 1.00; that for `CCOC(=O)C1(c2ccccc2)CCC=CC1N(C)C` (centres unmarked) [Tilidine], 1.30.

The data set is the same for the next values; noted with them: cell uptake in OCT1 overexpressing cells over uptake in mock transfected cells.
In the case of `CCCC(=O)Nc1ccc(OCC(O)CNC(C)C)c(C(C)=O)c1` (centres unmarked) [Acebutolol], the “OCT1 Ratio” value is listed as 5.20.
As to `CN(C)CCC=C1c2ccccc2CCc2ccccc21` [Amitriptyline], the “OCT1 Ratio” value was determined as 1.20.
For the molecule `C[N+](C)(C)CC(=O)O` [Betaine], the “OCT1 Ratio” value worked out at 1.00.
Same read-out and setting: the result for `CC(C)NCC(O)COc1ccc(COCCOC(C)C)cc1` (centres unmarked) [Bisoprolol] reads 1.00; that for `COc1cc(OC)c(C(=O)CCCN2CCCC2)c(OC)c1` [Buflomedil], 1.00; that for `C[N+](C)(C)CCO` [Choline], 1.50.
Take `CC(CCc1ccc(O)cc1)NCCc1ccc(O)c(O)c1` (centres unmarked) [Dobutamine]: the “OCT1 Ratio” value is on record as 14.70.
`CN(C)CCC=C1c2ccccc2COc2ccccc21` [Doxepin]: the “OCT1 Ratio” value is 1.30.
Consider `CN1CCC[C@@H]1Cc1c[nH]c2ccc(CCS(=O)(=O)c3ccccc3)cc12` [Eletriptan], for which the “OCT1 Ratio” value is 1.20.
On to `CN[C@@H]1CCc2[nH]c3ccc(C(N)=O)cc3c2C1` [Frovatriptan], for which the “OCT1 Ratio” value was found to be 33.10.
In the case of `NNC(=O)c1ccncc1` [Isoniazid], the “OCT1 Ratio” value was 0.94.
For `CC[C@@H](C(N)=O)N1CCCC1=O` [Levetiracetam], the “OCT1 Ratio” value is listed as 1.00.
The same measure, in the same setting: next, `CC12CC3CC(C)(C1)CC(N)(C3)C2` [Memantine]: 1.10; `C[C@@H](O)[C@H]1C(=O)N2C(C(=O)O)=C(S[C@@H]3CN[C@H](C(=O)N(C)C)C3)[C@H](C)[C@H]12` [Meropenem]: 1.10.
Take `Cc1nccn1CC1CCc2c(c3ccccc3n2C)C1=O` (centres unmarked) [Ondansetron]: the “OCT1 Ratio” value turned out to be 1.00.
With `Cn1c(=O)[nH]c2ncn(C)c2c1=O` [Paraxanthine], the “OCT1 Ratio” value is listed as 1.00.
For `CNC[C@H](O)c1cccc(O)c1` [Phenylephrine], the “OCT1 Ratio” value was 10.60.
Consider `CC(C)NCC(O)COc1cccc2[nH]ccc12` (centres unmarked) [Pindolol], for which the “OCT1 Ratio” value was determined as 1.20.
As to `CC(C)NCC(O)COc1cccc2ccccc12` (centres unmarked) [Propranolol], the “OCT1 Ratio” value turned out to be 1.10.
Turning to `NC(=O)c1cnccn1` [Pyrazinamide], the “OCT1 Ratio” value is reported as 0.80.
With `Cc1ncc(C[n+]2csc(CCO)c2C)c(N)n1` [Thiamine], the “OCT1 Ratio” value is on record as 11.60.
`COc1cc(Cc2cnc(N)nc2N)cc(OC)c1OC` [Trimethoprim]: the “OCT1 Ratio” value is 1.90.
With `COc1ccccc1N1CCN(CCCNc2cc(=O)n(C)c(=O)n2C)CC1` [Urapidil], the “OCT1 Ratio” value turned out to be 1.10.
As for `CN(C)CCc1c[nH]c2ccc(C[C@H]3COC(=O)N3)cc12` [Zolmitriptan], the “OCT1 Ratio” value is listed as 10.00.

Test system in the next data set: not given
Experiment: not given
More on the design: method as in PMID 19243716. The note with it: published studies; cited from earlier work.
On to `c1cnc2cc3c(cc2n1)[C@@H]1CNC[C@H]3C1` [varenicline], for which the “variation of blood concentrations” value is recorded as “more than 100 fold”.
